Each molecule was assayed against T1, Recombinant human renin (Homo sapiens, UniProt P00797) (assay: In vitro enzymatic activity assay of renin inhibitors (fluorescence, QXL520/HiLyteFluo488 peptide substrate)). Conditions: recombinant human renin 3 nM, 1 μM substrate, pre-incubated 10 minutes at 37° C., incubation one hour, pH 7.4, 5% DMSO; read-out: IC50 of Exemplified Compounds Against Renin.
T1 construct: isolate the active form (residues 67-406); made in house; host or cells: FreeStyle 293-F cells, transient expression of pcDNA3.1(+)/hREN
T1 sequence (P00797 67-406): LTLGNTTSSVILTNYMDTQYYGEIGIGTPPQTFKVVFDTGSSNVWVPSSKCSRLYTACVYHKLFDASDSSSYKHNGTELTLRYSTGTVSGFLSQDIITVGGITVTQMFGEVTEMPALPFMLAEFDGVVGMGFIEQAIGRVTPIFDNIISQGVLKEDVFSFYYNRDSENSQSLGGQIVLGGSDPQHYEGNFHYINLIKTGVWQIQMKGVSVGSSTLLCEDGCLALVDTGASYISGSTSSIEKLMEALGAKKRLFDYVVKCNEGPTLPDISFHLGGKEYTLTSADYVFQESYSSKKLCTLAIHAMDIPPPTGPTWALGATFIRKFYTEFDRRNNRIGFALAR
Format: biochemical
In the case of `COCCCOc1cccc(-n2c(-c3ccccc3)c(C(=O)N3CCNCC3)n(Cc3ccc(F)c(F)c3)c2=O)c1` [Example 164, 1-(3,4-Difluorobenzyl)-3-(3-(3-methoxypropoxy)phenyl)-4-phenyl-5-(piperazine-1-carbonyl)-1H-imidazol-2(3H)-one], the IC50 is reported as 500 to 1000 nM.
`Cc1ccccc1-n1c(-c2ccccc2)c(C(=O)N2CCNCC2)n(CCCNC(=O)CC(C)C)c1=O` [Example 165, 3-Methyl-N-(3-(2-oxo-4-phenyl-5-(piperazine-1-carbonyl)-3-o-tolyl-2,3-dihydro-1H-imidazol-1-yl)propyl)butanamide] gave an IC50 greater than 1000 nM.
`Cc1ccccc1-n1c(-c2ccccc2)c(C(=O)N2CCNCC2)n(CCNC(=O)c2ccccc2)c1=O` [Example 166, N-(2-(2-oxo-4-Phenyl-5-(piperazine-1-carbonyl)-3-o-tolyl-2,3-dihydro-1H-imidazol-1-yl)ethyl)benzamide] gave an IC50 of 500 to 1000 nM.
For `COc1ccccc1-n1c(-c2ccccc2)c(C(=O)N2CCNCC2)n(CCCNC(=O)CC(C)C)c1=O` [Example 167, N-(3-(3-(2-Methoxyphenyl)-2-oxo-4-phenyl-5-(piperazine-1-carbonyl)-2,3-dihydro-1H-imidazol-1-yl)propyl)-3-methylbutanamide], the IC50 was greater than 1000 nM.
`COc1ccccc1-n1c(-c2ccccc2)c(C(=O)N2CCNCC2)n(CCNC(=O)c2ccccc2)c1=O` [Example 168, N-(2-(3-(2-Methoxyphenyl)-2-oxo-4-phenyl-5-(piperazine-1-carbonyl)-2,3-dihydro-1H-imidazol-1-yl)ethyl)benzamide] showed an IC50 of 100 to 500 nM.
With `COc1ccccc1-n1c(-c2ccccc2)c(C(=O)N2CCNCC2)n(CCNC(=O)CC(C)C)c1=O` [Example 169, N-(2-(3-(2-Methoxyphenyl)-2-oxo-4-phenyl-5-(piperazine-1-carbonyl)-2,3-dihydro-1H-imidazol-1-yl)ethyl)-3-methylbutanamide] the IC50 was greater than 1000 nM.
Molecule `O=C(NCCCn1c(C(=O)N2CCNCC2)c(-c2ccccc2)n(C2CCCC[C@@H]2O)c1=O)c1ccccc1` (stereo partly drawn) [Example 170, N-(3-(3-((2S)-2-Hydroxycyclohexyl)-2-oxo-4-phenyl-5-(piperazine-1-carbonyl)-2,3-dihydro-1H-imidazol-1-yl)propyl)benzamide] has an IC50 greater than 1000 nM.
`O=C(c1c(-c2ccccc2)n(C2CCCC[C@@H]2O)c(=O)n1CCCNS(=O)(=O)c1ccccc1)N1CCNCC1` (stereo partly drawn) [Example 171, N-(3-(3-((2S)-2-Hydroxycyclohexyl)-2-oxo-4-phenyl-5-(piperazine-1-carbonyl)-2,3-dihydro-1H-imidazol-1-yl)propyl)benzenesulfonamide] gave an IC50 greater than 1000 nM.
With `CC(C)CC(=O)NCCCn1c(C(=O)N2CCNCC2)c(-c2ccccc2)n(C2CCCC[C@@H]2O)c1=O` (stereo partly drawn) [Example 172, N-(3-(3-((2S)-2-Hydroxycyclohexyl)-2-oxo-4-phenyl-5-(piperazine-1-carbonyl)-2,3-dihydro-1H-imidazol-1-yl)propyl)-3-methylbutanamide] the IC50 was greater than 1000 nM.
With `CC(C)CC(=O)NCCn1c(C(=O)N2CCNCC2)c(-c2ccccc2)n(C2CCCC[C@@H]2O)c1=O` (stereo partly drawn) [Example 173, N-(2-(3-((2S)-2-Hydroxycyclohexyl)-2-oxo-4-phenyl-5-(piperazine-1-carbonyl)-2,3-dihydro-1H-imidazol-1-yl)ethyl)-3-methylbutanamide] the IC50 was greater than 1000 nM.
`O=C(NCCCn1c(C(=O)N2CCNCC2)c(-c2ccccc2)n(-c2cccc(N3CCOCC3)c2)c1=O)c1ccccc1` [Example 174] was tested, and the IC50 was greater than 1000 nM.
`O=C(c1c(-c2ccccc2)n(-c2cccc(N3CCOCC3)c2)c(=O)n1CCCNS(=O)(=O)c1ccccc1)N1CCNCC1` [Example 175, N-(3-(3-(3-Morpholinophenyl)-2-oxo-4-phenyl-5-(piperazine-1-carbonyl)-2,3-dihydro-1H-imidazol-1-yl)propyl)benzenesulfonamide] showed an IC50 of 100 to 500 nM.
`CC(C)CC(=O)NCCCn1c(C(=O)N2CCNCC2)c(-c2ccccc2)n(-c2cccc(N3CCOCC3)c2)c1=O` [Example 176, 3-Methyl-N-(3-(3-(3-morpholinophenyl)-2-oxo-4-phenyl-5-(piperazine-1-carbonyl)-2,3-dihydro-1H-imidazol-1-yl)propyl)butanamide] was tested, and the IC50 was greater than 1000 nM.
Work on `O=C(NCCn1c(C(=O)N2CCNCC2)c(-c2ccccc2)n(-c2cccc(N3CCOCC3)c2)c1=O)c1ccccc1` [Example 177, N-(2-(3-(3-Morpholinophenyl)-2-oxo-4-phenyl-5-(piperazine-1-carbonyl)-2,3-dihydro-1H-imidazol-1-yl)ethyl)benzamide] yielded an IC50 of 500 to 1000 nM.
Molecule `CC(C)CC(=O)NCCn1c(C(=O)N2CCNCC2)c(-c2ccccc2)n(-c2cccc(N3CCOCC3)c2)c1=O` [Example 178, 3-Methyl-N-(2-(3-(3-morpholinophenyl)-2-oxo-4-phenyl-5-(piperazine-1-carbonyl)-2,3-dihydro-1H-imidazol-1-yl)ethyl)butanamide] has an IC50 greater than 1000 nM.
`COCCCOc1cccc(-n2c(-c3ccccc3)c(C(=O)N3CCNCC3)n(CCCNC(=O)c3ccccc3)c2=O)c1` [Example 179, N-(3-(3-(3-(3-Methoxypropoxy)phenyl)-2-oxo-4-phenyl-5-(piperazine-1-carbonyl)-2,3-dihydro-1H-imidazol-1-yl)propyl)benzamide] was tested, and the IC50 was 500 to 1000 nM.
`COCCCOc1cccc(-n2c(-c3ccccc3)c(C(=O)N3CCNCC3)n(CCCNS(=O)(=O)c3ccccc3)c2=O)c1` [Example 180, N-(3-(3-(3-(3-Methoxypropoxy)phenyl)-2-oxo-4-phenyl-5-(piperazine-1-carbonyl)-2,3-dihydro-1H-imidazol-1-yl)propyl)benzenesulfonamide] showed an IC50 of 100 to 500 nM.
`COCCCOc1cccc(-n2c(-c3ccccc3)c(C(=O)N3CCNCC3)n(CCCNC(=O)CC(C)C)c2=O)c1` [Example 181, N-(3-(3-(3-(3-Methoxypropoxy)phenyl)-2-oxo-4-phenyl-5-(piperazine-1-carbonyl)-2,3-dihydro-1H-imidazol-1-yl)propyl)-3-methylbutanamide] was tested, and the IC50 was greater than 1000 nM.
`COCCCOc1cccc(-n2c(-c3ccccc3)c(C(=O)N3CCNCC3)n(CCNC(=O)c3ccccc3)c2=O)c1` [Example 182, N-(2-(3-(3-(3-Methoxypropoxy)phenyl)-2-oxo-4-phenyl-5-(piperazine-1-carbonyl)-2,3-dihydro-1H-imidazol-1-yl)ethyl)benzamide] was tested, and the IC50 was 100 to 500 nM.
For `COCCCOc1cccc(-n2c(-c3ccccc3)c(C(=O)N3CCNCC3)n(CCNS(=O)(=O)c3ccccc3)c2=O)c1` [Example 183, N-(2-(3-(3-(3-Methoxypropoxy)phenyl)-2-oxo-4-phenyl-5-(piperazine-1-carbonyl)-2,3-dihydro-1H-imidazol-1-yl)ethyl)benzenesulfonamide], the IC50 was greater than 1000 nM.
For `COCCCOc1cccc(-n2c(-c3ccccc3)c(C(=O)N3CCNCC3)n(CCNC(=O)CC(C)C)c2=O)c1` [Example 184, N-(2-(3-(3-(3-Methoxypropoxy)phenyl)-2-oxo-4-phenyl-5-(piperazine-1-carbonyl)-2,3-dihydro-1H-imidazol-1-yl)ethyl)-3-methylbutanamide], the IC50 was greater than 1000 nM.
In the case of `O=C(c1c(-c2ccccc2)n(-c2cccc(N3CCOCC3)c2)c(=O)n1CCNS(=O)(=O)c1ccccc1)N1CCNCC1` [Example 185, N-(2-(3-(3-Morpholinophenyl)-2-oxo-4-phenyl-5-(piperazine-1-carbonyl)-2,3-dihydro-1H-imidazol-1-yl)ethyl)benzenesulfonamide], the IC50 is reported as greater than 1000 nM.

— patent US8148367B2 (Takeda Pharmaceutical Company Limited, priority 2008, dated 2012)
